Measurements as given in patent US5108916A, “Process for stereoselectively hydrolyzing, transesterifying or esterifying with immobilized isozyme of lipase from Candida rugosa” (priority 1989, dated 1992).
Where “and” joins values, the source holds several entries; their conditions need not be identical. Equal values may be shown once. Read-outs that look alike come from different tables or passages of the source.

Tests used:
Solubility of HPPA-Me = assay type: physicochemical
Lipase MY [1] = assay: Product inhibition of Lipase MY; assay type: biochemical, Candida rugosa
Experimental: Two hydrolysis reactions were run to determine the effect of methanol, produced as a by-product of the hydrolysis of HPPA-Me, on the activity of Lipase MY. (R,S)-HPPA-Me, 1.5 moles, 1 L of 1 M NH4 OAc, pH 6.5, 150 ml toluene, and 2 g Lipase MY were placed in flasks with and without 0.75 moles of methanol. The mixtures were shaken gently and sampled at various times to determine the concentrations of each of the stereoisomers of HPPA which were produced.
To determine the effect of the (R)-HPPA produced during the hydrolysis of (R,S)-HPPA-Me on the activity of Lipase MY, a series of three experiments were performed. Ammonium acetate, 200 ml, 0.04 M, pH 7.0, was combined with 30 ml of toluene, 40 mmoles (R,S)-HPPA-Me, 25 mg Lipase MY, and 0, 30, or 100 mM (R)-HPPA. The reactions were shaken gently for 136 hours and sampled at various times to determine the concentrations of each of the stereoisomers of HPPA which were produced.

Lipase MY [2] = assay: Effect of reducing agents on immobilized Lipase MY in the presence of HPPA; assay type: biochemical, Candida rugosa; conditions: for prevention of loss of enzyme activity: repeated batches, Tables 3-5
[3] = 2 mg/ml in 1M HPPA, 4 days, control enzyme 100%, HPPA treated 70.4%

## COC(=O)C(C)Oc1ccc(O)cc1 (racemic) [HPPA-ME, (R,S)-(+)-methyl-2-(4-hydroxyphenoxy)-propionate]
Solubility of HPPA-Me; aqueous solution, pH 6.5, read-out: solubility
  solubility: < 25 mM
Solubility of HPPA-Me; in trichlorotrifluoroethane
  Solubility (HPPA-ME): insoluble
Solubility of HPPA-Me; organic solvent or mixture, in 1,1,2 trichloroethane, read-out: Solubility (HPPA-ME)
  solubility: 558 mg/mL
Solubility of HPPA-Me; organic solvent or mixture, in 1,2-dibromoethane, read-out: Solubility (HPPA-ME)
  solubility: 566 mg/mL
Solubility of HPPA-Me; organic solvent or mixture, in carbon tetrachloride, read-out: Solubility (HPPA-ME)
  solubility: 33 mg/mL
Solubility of HPPA-Me; organic solvent or mixture, in cumene, read-out: Solubility (HPPA-ME)
  solubility: 20 mg/mL
Solubility of HPPA-Me; organic solvent or mixture, in cyclohexane, read-out: Solubility (HPPA-ME)
  solubility: 66.4 mg/mL
Solubility of HPPA-Me; organic solvent or mixture, in fluorobenzene, read-out: Solubility (HPPA-ME)
  solubility: 156 mg/mL
Solubility of HPPA-Me; organic solvent or mixture, in tetrachloroethylene, read-out: Solubility (HPPA-ME)
  solubility: 1.4 mg/mL
Solubility of HPPA-Me; organic solvent or mixture, in toluene, read-out: Solubility (HPPA-ME)
  solubility: 236 mg/mL

## CC(Oc1ccc(O)cc1)C(=O)O (stereo not drawn) [HPPA, 2-(4-hydroxyphenoxy)propionic acid]
Lipase MY [1]; various amounts (30, 100 mM) at the beginning
  reduction in enzyme activity: 10-67%
Solubility of HPPA-Me; aqueous solution, pH 6.5
  solubility: high solubility

## O=S([O-])S(=O)[O-].[Na+].[Na+] [Na2 S2 O4, sodium hydrosulfite]
Lipase MY [2]; 8 mg/ml, 5760 min
  Relative Activity: 111%
Lipase MY [2]; 16 mg/ml, 5760 min
  Relative Activity: 112%
Lipase MY [2]; Na2S2O4 25 mg, batches as E39
  Conversion (%) of HPPA-Me to HPPA: 25% and 21% and 34% and 23% and 29% and 18% and 31%
Lipase MY [2]
  prevention of loss of enzyme activity: effective at preventing loss of enzyme activity

## O=S([O-])[O-].[Na+].[Na+] [Na2 SO3, sodium sulfite]
Lipase MY [2]; [3]
  Relative Activity: 95%
Lipase MY [2]; 4 mg/ml
  Relative Activity: 101%
Lipase MY [2]; 8 mg/ml, 5760 min
  Relative Activity: 110%
Lipase MY [2]; 16 mg/ml, 5760 min
  Relative Activity: 111%
Lipase MY [2]; Na2SO3 10 mg, batches as E44
  Conversion (%) of HPPA-Me to HPPA: 26% and 20% and 16% and 14% and 13% and 15%
Lipase MY [2]
  prevention of loss of enzyme activity: Neither sodium sulfite nor cystine was effective

## N[C@@H](CSSC[C@H](N)C(=O)O)C(=O)O [cystine]
Lipase MY [2]; [3]
  Relative Activity: 83%
Lipase MY [2]; 4 mg/ml
  Relative Activity: 76%
Lipase MY [2]; 8 mg/ml, 5760 min
  Relative Activity: 81%
Lipase MY [2]; 16 mg/ml, 5760 min
  Relative Activity: 83%
Lipase MY [2]; Cystine 2.5 mg, 15 hrs, batch #: 1, 5, 9, 15, 16, 20, 21, 22
  conversion of HPPA-Me (quantity not headed in Table 5): 30 and 19 and 17 and 16 and 20
Lipase MY [2]
  prevention of loss of enzyme activity: Neither sodium sulfite nor cystine was effective

## CO [methanol]
Lipase MY [1]; 0.5 equivalents at the start of the reaction
  decrease in activity of the enzyme against HPPA-Me: 39%

## tetrabutylammonium cyanoborohydride [Bu4 N CNBH3]
Lipase MY [2]; 1m hppa phosphate, pH 6.5, 5760 min, 5760 min
  Relative Activity: 83% and 81% and 88% and 85%
